Test results: patent publication US7776572B2, “Method for reducing loss of enzyme activity during storage” (Corning Incorporated, priority 1996, dated 2010)

What was measured:
IgG protein = experiment: In-mold coating of 24-well polystyrene plates, protein binding by colloidal gold staining; conditions: 1% isopropanol solution
Procedure: The in-mold coating aspects of the invention were tested by molding 24-well polystyrene plates. […] The 0.01% concentration was estimated to produce less than one monolayer of surfactant on the finished product, while the 0.1% concentration produced about 7 monolayers. The surfactant was applied to the mold using a Crown sprayer (Crown Industrial Products, Hebron, Ill.; Catalog #8011), which produces a sufficiently fine spray of droplets to uniformly coat the mold. The mold was sprayed before each part was made.

Fetal Bovine Serum (FBS) = experiment: Polymer blends molded into petri dishes, FBS protein binding by colloidal gold; conditions: blended at 5% into polypropylene; silver enhancer
IgG (horse) = experiment: IgG binding to 24-well plates, surfactant dried or not dried before H2O rinse, colloidal Au; conditions: 0.5% surfactant in H2O/isopropanol (90/10)
Procedure: Duplicate 24-well plates were prepared as follows. Individual wells were filled with 3 ml of non-ionic surfactants at 0.5% (weight/volume) in H2O/isopropanol (90/10 weight/volume).
The duplicate plates were incubated for 30 minutes at room temperature on a rocker table and then emptied. One plate was tapped out and then allowed to dry at room temperature in a hood. It was then rinsed 5× with dI H2O. The second plate was not allowed to dry, but instead was immediately rinsed 5× with H2O. The plates were then tested for protein binding by filling each well with 0.5 ml of IgG (horse) at 10 μg/ml in PBS buffer and incubating for 30 minutes on a rocker table at room temperature. The plates were then rinsed with dI H2O and stained overnight with colloidal Au.

IgG = experiment: Coating durability using water washes, IgG binding by colloidal gold
Procedure: Polystyrene plates having 24 wells (Corning Costar #9447) were coated with these surfactants as described in Materials and Methods. Durability was tested by adding dI H2O to the wells of a test plate (3.0 mls/well), following which the plate was placed on a rocker table. […] The protein solution was incubated with the plate on a rocker table for 30 minutes at 23° C., following which the plate was H2O rinse 3× (3 mls each time). The colloidal gold staining procedure described above was used to reveal bound protein. The staining comprised an overnight incubation on a rocker table at 23° C., a dI H2O rinse, drying at room temperature, and reading at 550 nm.

MDCK cells = experiment: MDCK cell attachment to coated polystyrene 24-well plates; format: cell-based; conditions: coated PS 24-well, gamma sterilized, media with 5% FBS, two days, visual
Procedure: (§1) The procedures used were as follows. Polystyrene 24-well plates were coated with the non-ionic surfactants listed in Table 5 in accordance with the procedures described in Materials and Methods. Uncoated plates were used as a control. For comparison, plates with a covalently attached acrylamide coating (Corning Costar Catalog #2500) and with a stearic acid coating were also tested. The stearic acid coating was applied in the same manner as the non-ionic surfactants again using a 0.1% (w/v) solution.
(§2) The plates were gamma sterilized at 1.5 Mrad and then inoculated with 5.6×10^4 MDCK […] per well in 1 ml of complete media containing 5% FBS (Fetal Bovine Serum). Incubation was carried out at 37° C. in a 5% CO2 atmosphere for two days. The plates were fixed and stained, and cell attachment was noted. Following this, the wells were stained using the colloidal gold technique to detect bound protein. Only visual observations were made.
Experiments were also performed with cells suspended in serum. The cells used in these experiments were MDCK cells. The surfactants used were the same as used in Table 5. Again, reduced binding of the cells to surfaces treated with a non-ionic surfactant was observed.

BSA = experiment: Polymer blends molded into petri dishes, BSA binding by colloidal gold; conditions: blended at 5% into polypropylene; silver enhancer
[1] = system: GAM-IgG-HRP (goat-anti-mouse-IgG-horseradish peroxidase enzyme labeled antibody); experiment: Bound enzyme labeled antibody on strips exposed to aqueous surfactant, rinsed or not rinsed, ABTS readout; conditions: 0.1% surfactant in H2O/isopropanol (95/5), not dried
Procedure: Medium binding (catalog #2587) and high binding (catalog #2581) polystyrene 96-well plates (8-well strips) manufactured by Corning Costar were used as follows. […] Strips were incubated for 30 minutes at room temperature on a rocker table. Strips were then emptied and tapped out. […] Immediately following this procedure, each well was aliquoted 0.10 ml of GAM-IgG-HRP (goat-anti-mouse-IgG-horseradish peroxidase enzyme labeled antibody; Kirkegaard and Perry, Gaithersburg, Md., Catalog #074-1806) at 1.0 μg/ml in PBS buffer pH=7.4). Strips were incubated for one hour at room temperature on a rocker table. Strips were then rinsed 5× with PBS buffer containing 0.02% Tween-20 followed by post rinsing with H2O. […] Absorbance at 405 nm was measured on a Cambridge Technologies #7520 Plate Reader.

bound protein = experiment: Colloidal gold staining of bound protein after MDCK culture in media containing 5% FBS, visual; conditions: colloidal gold after cell culture, visual observation
Procedure: as §1, §2

| protein binding of in-mold coated part (IgG protein) | Bound Protein Absorbance (550 nm) FBS (Fetal Bovine Serum (FBS)) | Absorbance (550 nm) Dried before H2O rinse (IgG (horse); dried, then rinsed 5x) | Absorbance (550 nm) H2O rinsed before drying (IgG (horse); not dried, rinsed 5x immediately) | Absorbance (550 nm) Initial (IgG; coated polystyrene, no water wash) | Absorbance (550 nm) 1 Time 1 hr 23° C. (IgG; dI H2O wash 1 time, 1 hr, 23° C.) | Absorbance (550 nm) 1 Time 24 hr 23° C. (IgG; dI H2O wash 1 time, 24 hr, 23° C.) | Absorbance (550 nm) 1 Time 24 hr 37° C. (IgG; dI H2O wash 1 time, 24 hr, 37° C.) | Absorbance (550 nm) 1 Time 24 hr 70° C. (IgG; dI H2O wash 1 time, 24 hr, 70° C.) | Absorbance (550 nm) 6 Times 30 min each 23° C. (IgG; dI H2O wash 6 times, 30 min each, 23° C.) | Bound Protein Absorbance (550 nm) BSA (BSA) | Compound | MDCK Attachment (MDCK cells) | Absorbance (405 nm) High Binding Polystyrene No Rinse ([1]; not rinsed) | Absorbance (405 nm) Medium Binding Polystyrene No Rinse ([1]; not rinsed) | Absorbance (405 nm) High Binding Polystyrene Rinsed ([1]; rinsed 5x with dI H2O) | Absorbance (405 nm) Medium Binding Polystyrene Rinsed ([1]; rinsed 5x with dI H2O) | Visual Color Upon Protein Staining (bound protein) |
| --- | --- | --- | --- | --- | --- | --- | --- | --- | --- | --- | --- | --- | --- | --- | --- | --- | --- |
| low protein binding | – | – | – | – | – | – | – | – | – | – | CCCCCCCCCCCCCCCCCC(=O)OCC(O)CO (centres unmarked) [GLYCEROL MONO-STEARATE] | – | – | – | – | – | – |
| – | 0.270 | 0.14-0.16 | 0.13-0.16 | 0.00 | 0.02 | 0.05 | 0.10 | 0.10 | 0.10 | 0.153 | PEO(20) SORBITOL MONO-LAURATE | None | 0.00 | 0.00 | 2.00 | 1.90 | None |
